Values of other authors, collected in patent US10281467B2, “Screening assays to identify compounds which modulate T1R associated taste modalities which eliminate false positives” (SENOMYX, INC., priority 2013, dated 2019).

Test system: sweet taste
Settings: more potent/sweet than sucrose

C=C(C)[C@@H]1CC=C(/C=N/O)CC1 [Perillartine]
potency/sweetness relative to sucrose: approximately 370 times
